The values below come from patent US5873359A, “Methods and devices for treating pulmonary vasoconstriction and asthma” (The General Hospital Corporation, priority 1994, dated 1999).

Experiment [1] concerns pulmonary hypertension in ARDS. The experiment in a line: Inhaled NO versus i.v. prostacyclin in adult with ARDS (first subject). The experiment is classed as in vivo, human. How it is done: First subject. The patient had suffered for three weeks from adult respiratory distress syndrome (ARDS) due to aspiration pneumonia. There was diffuse pulmonary edema and a large QVA /QT (30%). After 21 days of venovenous extracorporeal membrane oxygenator support (3 liters/min blood flow), the mean PAP was 55 mm Hg.
The short term effects of inhaled nitric oxide were compared with those of i.v. prostacyclin (PGI2; 5ng/kg/min). Mean pulmonary arterial pressure (PAP), right ventricular ejection fraction (RVEF) and gas exchange variables were evaluated. RVEF was assessed by thermodilution, and gas exchange alterations were analyzed using the multiple inert gas elimination technique (MIGET). MIGET and RVEF date were obtained on two different occasions. Ventilator settings were tidal volume 6 ml/kg, respiratory rate 14/min, Fi O2 0.4-0.48 and 5 cm H2 O of PEEP (positive end expiratory pressure).

Experiment [2] has as its system airway resistance. The experiment in a line: Methacholine infusion alone (stability of bronchoconstrictor model). The experiment is classed as in vivo, Hartley strain guinea pigs. The settings on record: methacholine infusion (FIG. 13). The method, then:
(§1) Male Hartley strain guinea pigs (300-440g body wt) were anesthetized with α-chloralose (50 mg/kg) and urethane (500 mg/kg) (Drazen et al., J. Appl. Physiol. 48:613-618, 1980). A tracheostomy was performed, and the animals were intubated with a tubing adaptor (ID 1.65 mm) and ventilated with a small animal ventilator (Harvard Apparatus, a division of Ealing Scientific, Natick, Mass.) at 8 ml/kg and 60 breaths/min. A jugular vein was cannulated for intravenous administration of drugs. The chest was opened by bilateral excision of a portion of the ribs anteriorly so that the lungs were exposed to atmospheric pressure (Shore and Drazen, J. Appl. Physiol. 67:2504-2511, 1989). A positive end expiratory pressure of 3-4 cmH2 O was provided.
(§2) Guinea pigs were then placed inside a plethysmograph (Amdur and Mead, Am. J. Physiol. 192:363-368, 1958), that was connected to a large reservoir containing copper mesh to maintain the plethysmograph isothermal. Plethysmograph pressure was measured with a differential pressure transducer (Celesco, Canoga Park, Calif.); the opposite side of this transducer was connected to a similar reservoir. Pressure at the airway opening was measured from a side tap in the tracheal canula. Transpulmonary pressure was measured with a differential pressure transducer (Celesco) as the difference between airway opening pressure and the pressure inside the plethysmograph. […]

Experiment [3] has as its system persistent pulmonary hypertension of the newborn (PPHN). The experiment is classed as in vivo, human. The settings on record: standard dosage, infused, during nitric oxide. The method, then: First subject. Through compassionate use, nitric oxide was administered to an infant suffering from persistent pulmonary hypertension and congenital heart disease. As a result of prolonged ventilation, absence of a preductal arterial blood sampling site, and the existence of the atrial-ventricular (AV) canal, the patient was not included in the PPHN study mentioned above.
The patient was a 3225 gm, full term person who had been treated with extracorporeal membrane oxygenation (ECMO) because of the severity of their congenital heart disease and profound hypoxemia. They had been taken off ECMO and was being maintained intubated and ventilated in the newborn intensive care unit. They subsequently became progressively hypoxemic, as reflected in their post-ductal pulse oximetry (POX) values. By the time they were taken to the catheterization laboratory to confirm the existence of the A-V canal and to determine if some emergent cardiac surgery was needed, they were receiving maximal medical and ventilatory life support and remained dangerously hypoxemic. Under these circumstances, we were granted consent to treat the patient with nitric oxide.
Upon arrival to the catheterization laboratory, the patient was extremely cyanotic. They were treated with fentanyl, oxygen, hyperventilation and intravenous fluid boluses to stabilize them prior to administering NO.
We utilized a regulator to step-down the pressure of the NO into a blender, which allowed us to adjust the relative amounts of the 800 ppm NO/N2 and 100% N2 supplies. Treating the patient with pure oxygen, we increased the flow of N2 through a flow regulator into the inspiratory circuit of the breathing cicuit until the FI O2 was 0.9. This provided a 1:10 dilution of the nitrogen gas. We then used the blender to adjust the relative amounts of N2 and […] to provide 0 to 80 ppm of NO.

Experiment [4] relates to methacholine bronchoconstriction. The experiment in a line: NO and terbutaline aerosol during methacholine infusion. The experiment is classed as in vivo, Hartley strain guinea pigs. As to conditions: NO gas before or after inhaled terbutaline. The method, then: as §1, §2
The mark [5] stands for this setting: occasion #1, PGI2 5ng/kg/min i.v.
Where [6] appears, read: occasion #2, PGI2 5ng/kg/min i.v.

With `CCCCC[C@H](O)/C=C/[C@@H]1[C@H]2C/C(=C/CCCC(=O)O)O[C@H]2C[C@H]1O` [PGI2, prostacyclin, reference compound], in experiment [1] (PGI2, i.v.), the “QVA /QT” value is reported as 57%. Also, the “PAP and RVEF” value in experiment [1] (inhaled NO and i.v. PGI2, text) was “lowered PAP and improved RVEF”. In experiment [1] (setting [5]), the MAP came out at 81 mm Hg, the PAP is 46 mm Hg, the PCWP is recorded as 12 mm Hg and the PaO2 stood at 74 torr. In addition, in experiment [1] (setting [5]), the “QA /QT” value was 57%, the “VD /VT” value is 51% and the “low VD /Q” value is recorded as 0%. Moreover, in experiment [1] (setting [6]), the MAP is 86 mm Hg, the PAP stood at 42 mm Hg, the PCWP is 14 mm Hg and the PaO2 stood at 81 torr. For the same molecule, the RVEF in experiment [1] (setting [6]) came out at 42%.
As to `CC(=O)OC(C)C[N+](C)(C)C` (centres unmarked) [methacholine], the airway resistance entry in experiment [2] is listed as “stably increasing levels of airway resistance for up to one hour”.
Take `CCCCC[C@H](O)/C=C/[C@H]1[C@H](O)CC(=O)[C@@H]1CCCCCCC(=O)O` [prostaglandin E1, reference compound]: in experiment [3], the “effect of prostaglandin infusion on need for nitric oxide” value is reported as “nitric oxide could not be discontinued without the return of dangerously low oxygen saturations”.
Regarding `CC(C)(C)NCC(O)c1cc(O)cc(O)c1` (centres unmarked) [terbutaline, reference compound], in experiment [4], the “bronchodilating effects of NO plus terbutaline” value is on record as “additive”.
